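Each compound was tested at five concentrations against cells in 96-well plates for 48 hours. Definition used: TGI = concentration required for complete inhibition of growth.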
Tests used:
Assay in all cases: NCI-60 cell line screen, 48 h
TK-10 renal = test system: TK-10 renal
SF-539 CNS = test system: SF-539 CNS
T-47D breast = test system: T-47D breast
DMS 114 small cell lung = test system: DMS 114 small cell lung
SNB-78 CNS = test system: SNB-78 CNS
RXF 393 renal = test system: RXF 393 renal
DMS 273 small cell lung = test system: DMS 273 small cell lung
LOX IMVI melanoma = test system: LOX IMVI melanoma
A549 NSCLC = test system: A549 NSCLC
HT29 colon = test system: HT29 colon
OVCAR-8 ovarian = test system: OVCAR-8 ovarian
M19-MEL melanoma = test system: M19-MEL melanoma

| SMILES | TGI (TK-10 renal) | TGI (SF-539 CNS) | TGI (T-47D breast) | TGI (DMS 114 small cell lung) | TGI (SNB-78 CNS) | TGI (RXF 393 renal) | TGI (DMS 273 small cell lung) | TGI (LOX IMVI melanoma) | TGI (A549 NSCLC) | TGI (HT29 colon) | TGI (OVCAR-8 ovarian) | TGI (M19-MEL melanoma) |
| --- | --- | --- | --- | --- | --- | --- | --- | --- | --- | --- | --- | --- |
| O=[N+]([O-])c1ccc(C2CC(c3ccccc3Cl)=Nc3ccccc3S2=O)cc1 (centres undefined) | 19.9 µM | 15.9 µM | 44.2 µM | 4.36 µM | 56 µM | 4.05 µM | 8.87 µM | 3.79 µM | 38 µM | 5.73 µM | 11.7 µM | 6.89 µM |
| ON(Cc1ccccc1)C(=S)c1ccccc1 | > 100 µM | 44.4 µM | > 100 µM | 9.55 µM | > 100 µM | 85.3 µM | > 76.5 µM | > 46.9 µM | > 100 µM | > 100 µM | > 69.8 µM | > 100 µM |
